The values below come from patent US20050043381A1, “Aminopyrazole compounds” (AGOURON PHARMACEUTICALS, INC., priority 2003, published 2005).

For orientation: EC50 means the concentration that produces a half-maximal response. For orientation: Ki means the dissociation constant of the complex between target and ligand, obtained from inhibition or displacement.

Assay [1] deals with CA-46 (lymphoma) cells. Kind of assay: Whole cell checkpoint abrogation assay (CHK1 Mitotic Index ELISA). Format: cell-based. The procedure: To examine the in vitro effects of CHK1 inhibitory compounds, an ELISA assay can be designed to monitor the abrogation of DNA damage-induced checkpoint control. The assay can be based on the trapping and detection of mitotic cells following DNA damage-induced arrest.
CA-46 (lymphoma) cells can be treated with a DNA damaging agent, such as camptothecin (Sigma), at 50 nM for 8 hours to induce DNA damage. The control compound or CHK1 inhibitor can be then added at increasing concentrations with Nocodazole (Sigma) at 0.1 μg/ml and plates can be incubated for 16 hours. Control cells, where only CHK1 inhibitors can be added, can be prepared as well to assure that the inhibitors alone have no effect on the cell cycle. The cells can be then harvested, washed with PBS, and crude acid extraction can be performed. Pellets can be resuspended in 80 μl of Acid Extraction Buffer (10 mM Hepes pH 7.9, 1.5 mM MgCl2, 10 mM KCl, 0.5 mM DTT, 1.5 mM PMSF, 0.4N sulfuric acid), vortexed briefly, and incubated for 30 minutes on ice. Samples can be then centrifuged and 75 μl of the supernatant can be transferred to a 96 well flat-bottom plate (VWR 3596). Next 15 μl Neutralizing Cocktail (# of samples×(10 μl 10N NaOH+5 μl 1M Tris Base) can be added to each well, and after mixing, 5 μl of this can be transferred to another 96 well plate with 100 μl 50 mM Tris base (pH 9.6) in each well. Samples can be dried overnight. The wells can be then washed with 200 μl ELISA wash buffer (PBS with 20 mM Tris pH 7.5, 0.05% Tween 20) 5 times and blocked with 200 μl blocking buffer (PBS with 20 mM Tris pH 7.5, 0.05% Tween 20, 3.5% Dry milk, 1.5% BSA. pH to 7.5 after preparation) for 1 hour at room temperature. Following wash and block, anti-phospho Histone H3 antibodies (Upstate USA, Inc., rabbit polyclonal) can be added at 0.5 μg/ml in block (100 μl per well) and incubated for 2 hours at room temperature. Wells can be washed again to remove unbound primary antibody and 100 μl alkaline phosphatase conjugated secondary antibodies at 0.3 mg/ml (Pierce, goat anti-rabbit IgG ([…]+L)) in block can be added for 1 hour at room temp. Wells can be washed 5 times to remove unbound secondary antibody, and washed again 3 times with PBS alone to remove detergents. Then 100 μl alkaline phosphatase substrate (Pierce 1-Step pNPP) can be added to wells. Plates can be protected from light and incubated at room temp for 1 hour. The OD can be read on Molecular Devices Vmax Kinetic Microplate Reader at 405 nm. The ratio of the OD (optical density) of a compound treated sample to the Nocodazole only treated sample (about 100% mitotic or abrogation) can be expressed in a percentage, and quantifies the percent abrogation of the checkpoint. The concentration at which a compound causes 50% abrogation of the checkpoint can be called the EC50. The raw OD values can be graphed in Excel, and an EC50 value can be generated using Kaleidograph software. Strong signal results from Nocodazole only treated cells, and equals 100% mitosis in this assay. Camptothecin+Nocodazole treated control samples have low signal, signifying no mitosis and therefore, no checkpoint abrogation. When potent CHK1 inhibitors are added to Camptothecin treated cells with Nocodazole, a high signal can be generated (generally in a dose dependent manner), due to the checkpoint abrogation activity caused by the combination treatment.
A general note: An ELISA detects its analyte on a solid surface through an enzyme-linked reagent.

Assay [2] addresses T1, full-length human CHK1 (FL-CHK1) (Homo sapiens, UniProt O14757).
T1 construct: C-terminally His-tagged full-length human CHK1 (FL-CHK1); 6xHis (C); made in house
T1 sequence (O14757 1-476): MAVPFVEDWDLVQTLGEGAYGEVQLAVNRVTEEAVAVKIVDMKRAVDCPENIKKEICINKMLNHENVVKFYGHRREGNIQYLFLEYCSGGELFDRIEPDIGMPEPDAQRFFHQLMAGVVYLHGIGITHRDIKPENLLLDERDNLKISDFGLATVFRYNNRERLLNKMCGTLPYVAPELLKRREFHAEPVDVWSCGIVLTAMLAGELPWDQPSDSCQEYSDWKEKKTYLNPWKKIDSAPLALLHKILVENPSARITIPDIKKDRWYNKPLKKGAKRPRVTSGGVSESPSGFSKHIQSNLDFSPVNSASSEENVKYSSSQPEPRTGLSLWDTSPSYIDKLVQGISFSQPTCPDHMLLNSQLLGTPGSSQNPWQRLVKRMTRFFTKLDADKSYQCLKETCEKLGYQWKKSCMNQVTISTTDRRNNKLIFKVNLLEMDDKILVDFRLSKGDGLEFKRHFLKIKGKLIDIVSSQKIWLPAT
Nature of the assay: FL-CHK1 assay (coupled spectrophotometric, Syntide-2). Format: biochemical. Conditions: FL-CHK1, 0.15 mM ATP. The text has this:
C-terminally His-tagged full-length human CHK1 (FL-CHK1) was expressed using the baculovirus/insect cell system. It contains 6 histidine residues (6 x His-tag) at the C-terminus of the 476 amino acid human CHK1. The protein was purified by conventional chromatographic techniques.
The production of ADP from ATP that accompanies phosphoryl transfer to the synthetic substrate peptide Syntide-2 (PLARTLSVAGLPGKK) was coupled to oxidation of NADH using phosphoenolpyruvate (PEP) through the actions of pyruvate kinase (PK) and lactic dehydrogenase (LDH). The oxidation of NADH was monitored by following the decrease of absorbance at 340 nm (ε340=6.22 cm^−1 mM^−1) using a HP8452 spectrophotometer. Typical reaction solutions contained: […] PEP; 0.15 mM NADH; 28 units of LDH/mL; 16 units of PK/mL; 3 mM DTT; 0.125 mM Syntide-2; 0.15 mM ATP; 25 mM MgCl2 in 50 mM TRIS, pH 7.5; and 400 mM NaCl. Assays were initiated with 10 nM of FL-CHK1. Ki values were determined by measuring initial enzyme activity in the presence of varying concentrations of test compounds. The data were analyzed using Enzyme Kinetic and Kaleidagraph software. […]

For the compound `Oc1ccc(-c2ccc(-c3cc(Nc4ccc(CNCC5CC5)nc4)[nH]n3)cc2)c(O)c1` [Example 23, 4′-{5-[(6-{[(cyclopropylmethyl)amino]methyl}pyridin-3-yl)amino]-1H-pyrazol-3-yl}-1,1′-biphenyl-2,4-diol], in assay [1] (concentration causing 50% abrogation of the checkpoint, camptothecin + Nocodazole), the EC50 is 165 nM. In assay [2], this compound showed a Ki of 1 to 10 nM.
Regarding `Oc1ccc(-c2ccc(-c3cc(Nc4ccc(CNC5CC5)nc4)n[nH]3)cc2)c(O)c1` [Example 24, 4′-[5-({6-[(cyclopropylamino)methyl]pyridin-3-yl}amino)-1H-pyrazol-3-yl]-1,1′-biphenyl-2,4-diol], the “percent abrogation of the checkpoint” value in assay [1] (@ 1 μM) is recorded as 1% @ 1 μM. In assay [2], the Ki was in the range of 1 to 10 nM.
